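In this assay, cells in 96-well plates receive the compound at five concentrations for 48 hours. Endpoints are linearly interpolated between the surrounding concentrations. Abbreviation: GI50, concentration required for 50% inhibition of growth. The concentration for full growth arrest is given as TGI.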
Columns and labels:
P388 leukemia = assay: NCI tumour cell line growth inhibition, 48 h
P388/ADR leukemia = assay: NCI tumour cell line growth inhibition, 48 h

C[CH2][Ge]1([CH2]C)[CH2]CC2(CCN(CCCN(C)C)C2)C[CH2]1
GI50 (P388 leukemia): 1340 nM | TGI (P388 leukemia): 2700 nM | GI50 (P388/ADR leukemia): 1020 nM | TGI (P388/ADR leukemia): 1870 nM

COc1cccc2c1C(=N)c1c(O)c3c(c(O)c1C2=O)C[C@@](O)(C(C)=O)C[C@@H]3OC1CC(N)C(O)C(C)O1 (some centres undefined)
GI50 (P388 leukemia): 42.5 nM | GI50 (P388/ADR leukemia): 13600 nM | TGI (P388/ADR leukemia): 51700 nM

O=C(NC(c1ccccc1)C(O)C(=O)OCc1ccc2c(c1)C(=O)c1ccccc1C2=O)c1ccccc1 (centres undefined)
TGI (P388 leukemia): > 100000 nM | TGI (P388/ADR leukemia): > 100000 nM
